# According to ChEMBL document CHEMBL3098042, “New carbocyclic nucleoside analogues with a bicyclo[2.2.1]heptane fragment as sugar moiety; synthesis, X-ray crystallography and anticancer activity” (2014):
# Experiments:
# [1] = Anticancer activity against human U937 cells assessed as decrease in uridine incorporation at 30 uM relative to control; type: functional, U-937; design: scale not given: the % may be the effect or the level left
# MOLT-4 = assay: Growth inhibition of human MOLT4 cells at 10^-5 M relative to control; type: functional; conditions: values are per cent of control
# CCRF-CEM = assay: Growth inhibition of human CCRF-CEM cells at 10^-5 M relative to control; type: functional; conditions: values are per cent of control
# HCT-15 = assay: Growth inhibition of human HCT15 cells at 10^-5 M relative to control; type: functional; conditions: values are per cent of control
# IGROV-1 = assay: Growth inhibition of human IGROV1 cells at 10^-5 M relative to control; type: functional; conditions: values are per cent of control
# [2] = Growth inhibition of human UO31 cells at 10^-5 M relative to control; type: functional; conditions: UO-31, values are per cent of control
# SNB-75 = assay: Growth inhibition of human SNB75 cells at 10^-5 M relative to control; type: functional; conditions: values are per cent of control
# SR = assay: Growth inhibition of human SR cells at 10^-5 M relative to control; type: functional; conditions: values are per cent of control
# PC-3 = assay: Growth inhibition of human PC3 cells at 10^-5 M relative to control; type: functional; conditions: values are per cent of control
# MDA-MB-468 = assay: Growth inhibition of human MDA-MB-468 cells at 10^-5 M relative to control; type: functional; conditions: values are per cent of control
# [3] = Growth inhibition of human NCI-ADR-RES cells at 10^-5 M relative to control; type: functional; conditions: values are per cent of control
# CAKI-1 = assay: Growth inhibition of human CAKI-1 cells at 10^-5 M relative to control; type: functional; conditions: values are per cent of control
# NCI-H226 = assay: Growth of human NCI-H226 cells at 10^-5 M relative to control
# SK-MEL-5 = assay: Growth inhibition of human SK-MEL-5 cells at 10^-5 M relative to control; type: functional; conditions: values are per cent of control
# [4] = Growth inhibition of human RXF393 cells at 10^-5 M relative to control; type: functional; conditions: RXF 393, values are per cent of control
# HL-60(TB) = assay: Growth inhibition of human HL-60(TB) cells at 10^-5 M relative to control; type: functional; conditions: values are per cent of control
# [5] = Growth inhibition of human OVCAR5 cells at 10^-5 M relative to control; type: functional; conditions: OVCAR-5, values are per cent of control
# HCT-116 = assay: Growth inhibition of human HCT116 cells at 10^-5 M relative to control; type: functional; conditions: values are per cent of control
# K562 = assay: Growth inhibition of human K562 cells at 10^-5 M relative to control; type: functional; conditions: values are per cent of control
# MCF7 = assay: Growth inhibition of human MCF7 cells at 10^-5 M relative to control; type: functional; conditions: values are per cent of control
# LOX IMVI = assay: Growth inhibition of human LOXIMVI cells at 10^-5 M relative to control; type: functional; conditions: values are per cent of control
# T47D = assay: Growth inhibition of human T47D cells at 10^-5 M relative to control; type: functional; conditions: values are per cent of control
# NCI-H322M = assay: Growth inhibition of human NCI-H322M cells at 10^-5 M relative to control; type: functional; conditions: values are per cent of control
# NCI-H522 = assay: Growth inhibition of human NCI-H522 cells at 10^-5 M relative to control; type: functional; conditions: values are per cent of control
Structure (SMILES),"growth, % of control at 10 µM (MOLT-4) [%]","growth, % of control at 10 µM (CCRF-CEM) [%]","growth, % of control at 10 µM (HCT-15) [%]","growth, % of control at 10 µM (IGROV-1) [%]","growth, % of control at 10 µM [2] [%]","growth, % of control at 10 µM (SNB-75) [%]","growth, % of control at 10 µM (SR) [%]","growth, % of control at 10 µM (PC-3) [%]","growth, % of control at 10 µM (MDA-MB-468) [%]","growth, % of control at 10 µM [3] [%]","growth, % of control at 10 µM (CAKI-1) [%]","growth, % of control at 10 µM (SK-MEL-5) [%]","growth, % of control at 10 µM [4] [%]","growth, % of control at 10 µM (HL-60(TB)) [%]","growth, % of control at 10 µM [5] [%]","growth, % of control at 10 µM (HCT-116) [%]","growth, % of control at 10 µM (K562) [%]","growth, % of control at 10 µM (MCF7) [%]","growth, % of control at 10 µM (LOX IMVI) [%]","growth, % of control at 10 µM (T47D) [%]",also measured
O=c1[nH]c(=O)n([C@H]2C[C@@H]3[C@@H](/C=C/[C@@H](O)COc4cccc(Cl)c4)[C@H](O)C[C@@H]3O2)cc1I,,,,,,,,,,,,,,,,,,,,,Activity [1]: 64%
CN1CCN(c2ncnc3c2ncn3[C@H]2C[C@H]3[C@H](CO)[C@@H]2C[C@@H]3Cl)CC1,83.4,90.5,97.7,92.7,78.5,107,81,96.2,101,100,98.4,99.4,111,86,96.4,101,107,84,98,100,"growth, % of control at 10 µM (NCI-H226): 102%; growth, % of control at 10 µM (NCI-H322M): 92.7%"
OC[C@H]1[C@@H]2C[C@H](n3cnc4c(N5CCOCC5)ncnc43)[C@H]1C[C@@H]2Cl,81.1,84.9,93,92.3,76.9,85.6,82.3,98.5,110,99,87.2,99.8,113,91.9,93,89.6,90.7,99.9,95.8,100,"growth, % of control at 10 µM (NCI-H522): 94.5%; growth, % of control at 10 µM (NCI-H226): 108%; growth, % of control at 10 µM (NCI-H322M): 100%"
OC[C@H]1[C@@H]2C[C@H](n3cnc4c(NCCc5ccccc5)ncnc43)[C@H]1C[C@@H]2Cl,83.3,87.6,81.7,105,73.8,106,84.1,89.1,89.4,88.2,96,73.9,87,120,104,101,91.1,89.9,92.7,86.8,"growth, % of control at 10 µM (NCI-H322M): 99.5%"
OC[C@H]1[C@@H]2C[C@H](n3cnc4c(NC5CCCC5)ncnc43)[C@H]1C[C@@H]2Cl,87.1,83.7,93.7,,99.6,88,86.5,95.3,102,103,99,95.7,104,118,98.8,99.8,93.1,97.2,89.7,94.1,"growth, % of control at 10 µM (NCI-H522): 101%"
Nc1ncnc2c1ncn2[C@H]1C[C@H]2[C@H](CO)[C@@H]1C[C@@H]2Cl,85.6,90.1,97.5,103,94.2,103,88.9,99.3,103,103,86.9,96.5,106,95.8,90.1,89.2,97.1,100,91.8,102,"growth, % of control at 10 µM (NCI-H522): 98.7%; growth, % of control at 10 µM (NCI-H226): 110%; growth, % of control at 10 µM (NCI-H322M): 102%"
CN(C)c1ncnc2c1ncn2[C@H]1C[C@H]2[C@H](CO)[C@@H]1C[C@@H]2Cl,78.9,86.7,100,101,79.1,99.3,81.4,93.3,102,98.7,95.1,99.5,109,98.2,90.3,101,91,94.9,96.8,96.8,"growth, % of control at 10 µM (NCI-H522): 88.3%; growth, % of control at 10 µM (NCI-H226): 101%; growth, % of control at 10 µM (NCI-H322M): 96.8%"
OC[C@H]1[C@@H]2C[C@H](n3cnc4c(NC5CC5)ncnc43)[C@H]1C[C@@H]2Cl,84.8,89.5,96.5,90.6,85.8,97.8,86.6,104,100,101,102,101,110,89,95,96.5,95.8,98.5,89.6,89.6,"growth, % of control at 10 µM (NCI-H522): 88.7%; growth, % of control at 10 µM (NCI-H226): -27.2%; growth, % of control at 10 µM (NCI-H322M): 90%"
CCN(CC)CCCNc1ncnc2c1ncn2[C@H]1C[C@H]2[C@H](CO)[C@@H]1C[C@@H]2Cl,83.6,90.2,101,112,80.6,99.2,85.8,102,101,103,93,102,111,90.5,99.7,98.5,106,95.9,96.9,104,"growth, % of control at 10 µM (NCI-H522): 93.2%; growth, % of control at 10 µM (NCI-H226): 105%; growth, % of control at 10 µM (NCI-H322M): 93.2%"
CN(C)c1ncnc2c1ncn2[C@H]1C[C@@H]2C=C[C@H]1[C@H]2CO,79.7,87.9,98.9,98.2,82.7,109,82.2,92,98.2,99.5,97.9,98.3,109,88.8,96.5,94.8,90,98.7,95.8,104,"growth, % of control at 10 µM (NCI-H522): 98.5%; growth, % of control at 10 µM (NCI-H226): 109%; growth, % of control at 10 µM (NCI-H322M): 104%"
